Laboratory results from patent US20140318000A1, “COMBINING ALGAE CULTIVATION AND CO2 CAPTURE” (Nederlandse Organisatie voor …, priority 2011, published 2014).
“Also recorded” adds a separate entry of the source.

How the values were obtained:
Spirulina platensis = test: Growth of Spirulina platensis (dry algae density) in growth medium combined with absorbent liquid loaded with CO2; type: cell-based
Protocol: For the absorbent liquids standard procedures were used to prepare the solvent solutions. For the absorbent liquids stock solutions with a molarity of 2 M were prepared. To test the growth, the molarities of the solutions were adjusted at the start of the experiments by adding a given amount of the aqueous growth medium.
The growth of the algae was tested with different solutions composed from different ratios (volume based) of growth media and absorbent liquid.
Subsequently, a number of dedicated experiments were performed were a specific algae (and growth medium) was combined with a given absorbent liquid in the presence of CO2. The CO2 was added in two different ways.
In the first way, so-called batch operation, the algae, growth medium, and the absorbent liquid (with a given molarity) were prepared in a beaker (of about 1 l) or reactor (available with a volume of 10 l and 20 l) and the CO2 was bubbled through for at least 12 h to saturate the solution with a high flow rate (in the order of 200 ml/min).
During the experiments the pH was measured on a daily basis.
At given times a small sample was taken from the beaker (or reactor) to analyse the micro-algae. The volume of the sample was determined, the sample was then dried in an oven, and subsequently the mass determined (by weighing) to obtain the dry algae density (g/l).
For various tests, Arthrospira (Spirulina) platensis was used. The Spirulina strain is kept in Schlösser's medium (Schlösser, Berichten der Deutchen Botanischen Gesellschaft 1982, 95, 181-276). Schlösser's medium contained per litre: 13.6 g of NaHCO3, 4.03 g of Na2CO3, 0.5 g of K2HPO4, 2.5 g of NaNO3, 1 g of K2SO4, 1 g of NaCl, 0.2 g of MgSO4.7H2O, 0.04 g of CaCl2.2H2O, 0.01 g of FeSO4.7H2O, and 0.08 g of EDTA (ethylenediaminetetraacetic). Some micronutrients are added as well.
The overall composition based on 1 l of total solution was obtained by combining: 400 ml of the growth medium, for example the Schlösser's medium, with 400 ml of an aqueous amino acids salts, with as ‘counter ion’ potassium hydroxide, solution, where the amount of amino acid was varied between 0.1 M and 1 M. Subsequently, 200 ml of algae solution was added.

[1] = CO2 uptake in absorbent liquid in a sealed beaker fed continuously with flue gas, online CO2 analyser; type: physicochemical; settings: 0.2 M taurine, 4 l liquid, flue gas 7.2% CO2, total period 100 000 s
Protocol: CO2 is fed continuously to a sealed beaker with water and with an absorp absorbent liquid (0.2 M taurine). The height of the liquids is 30 cm the total amount of liquids is 4 l. For water the uptake, that is the amount of CO2, in %, leaving the beaker as function of the time, is given for two flow rates. […] In FIG. 4, the CO2 concentration, in %, leaving the beaker as function of time is depicted. Experiments were conducted in a sealed beaker, where flue gas was fed, and where the gaseous stream leaving the beaker was analysed with an online CO2 analyser. The composition of the ‘flue gas’ was 7.2% CO2 and […].

NCCS(=O)(=O)O [taurine, 2-aminoethanesulphonic acid]
dry algae density (Spirulina platensis; Spirulina platensis, 0.1 M taurine as absorbent liquid): about 2 g/l
dry algae density, initial constant level (Spirulina platensis; Spirulina platensis, 0.2 M taurine, solution saturated with CO2 at start, before reloading at day 20): about 1.4 g/l
final dry algae density (Spirulina platensis; Spirulina, 0.2 M taurine initially saturated with CO2, after about 15 days): 2.1 g/L
dry algae density after growth period (Spirulina platensis; Spirulina, 0.2 M taurine initially saturated with CO2, increase from 0.25 g/l in about 5 days after start-up): 1.7 g/L
CO2 leaving the beaker [1]: no CO2 was measured; also recorded: almost no CO2 is leaving the beaker
